Data as given in ChEMBL document CHEMBL5053556, “Design, Synthesis, and Biological Evaluation of a Novel Series of Teriflunomide Derivatives as Potent Human Dihydroorotate Dehydrogenase Inhibitors for Malignancy Treatment” (J Med Chem, 2021).
pIC50: −log10 of the molar value.

Experiments:
[1] = target: T1, Dihydroorotate dehydrogenase (quinone), mitochondrial (Homo sapiens, UniProt Q02127); conditions: dose 100.0 nM, time 30.0 min
MV4-11 = assay: Antiproliferative activity against human MV4-11 cells assessed as cell growth inhibition incubated for 96 hrs by MTT assay; type: functional, cell-based; conditions: MV4-11, 96 h
Raji [2] = assay: Antiproliferative activity against human Raji cells assessed as cell growth inhibition at 0.2 uM incubated for 96 hrs by MTT assay; type: functional; parameters: scale not given: the % may be the effect or the level left
[3] = target: T1, Dihydroorotate dehydrogenase (quinone), mitochondrial
Description: Inhibition of human DHODH using dihydroorotate substrate preincubated for 30 mins followed by substrate addition by DCIP based microplate reader analysis

HL-60 = assay: Antiproliferative activity against human HL-60 cells assessed as cell growth inhibition incubated for 96 hrs by MTT assay; type: functional, cell-based; conditions: HL-60, 96 h
[4] = Clearance in Sprague-Dawley rat at 15 mg/kg, po measured after 48 hrs by LC-MS analysis; type: ADME, organism-based; conditions: in vivo
[5] = Half life in Sprague-Dawley rat at 15 mg/kg, po measured after 48 hrs by LC-MS analysis; type: ADME, organism-based; conditions: in vivo
Raji [6] = assay: Antiproliferative activity against human Raji cells assessed as cell growth inhibition at 0.4 uM preincubated with uridine for 24 hrs followed by compound addition and measured after 72 hrs by MTT assay; type: functional; parameters: scale not given: the % may be the effect or the level left
[7] = Drug distribution in NOD-SCID mouse kidney at 40 mg/kg, po administered for 25 days by LC-MS analysis; type: ADME, organism-based; conditions: in vivo, 600 h, time 25 day
[8] = Acute toxicity in BALB/c mouse assessed change in behavior at 400 mg/kg, po; type: organism-based; conditions: in vivo
[9] = Microsomal stability in mouse liver microsomes assessed as half life at 1 uM measured upto 120 mins in presence of NADPH by LC-MS analysis; type: ADME, Microsome
[10] = Half life in Sprague-Dawley rat at 5 mg/kg, iv measured after 48 hrs by LC-MS analysis; type: ADME, organism-based; conditions: in vivo
Raji [11] = assay: Antiproliferative activity against human Raji cells assessed as cell growth inhibition at 0.1 uM incubated for 96 hrs by MTT assay; type: functional; parameters: scale not given: the % may be the effect or the level left
Raji [12] = assay: Induction of cell cycle arrest in human Raji cells assessed as accumulation of cells at S phase at 0.25 uM after 24 hrs by propidium iodide staining based flow cytometric analysis (reference value: 45.7%); type: functional
Mus musculus [13] = assay: Toxicity in NOD-SCID mouse xenografted with human Raji cells assessed as change in AST level at 40 mg/kg, po administered for 25 days; type: organism-based; conditions: in vivo, 600 h, time 25 day
[14] = Clearance in Sprague-Dawley rat at 5 mg/kg, iv measured after 48 hrs by LC-MS analysis; type: ADME, organism-based; conditions: in vivo, iv, 5 mg/kg, 48 h
[15] = Acute toxicity in BALB/c mouse assessed as effect on heart at 400 mg/kg, po measured on day 14 by H and E staining based assay; type: organism-based; conditions: in vivo, 336 h, time 14 day
[16] = Cmax in Sprague-Dawley rat at 15 mg/kg, po measured after 48 hrs by LC-MS analysis; type: ADME, organism-based; parameters: dose 15 mg/kg, time 48 hrs, route po; conditions: in vivo
Raji [17] = assay: Antiproliferative activity against human Raji cells assessed as cell growth inhibition at 0.1 uM preincubated with uridine for 24 hrs followed by compound addition and measured after 72 hrs by MTT assay; type: functional; parameters: scale not given: the % may be the effect or the level left
Raji [18] = assay: Antiproliferative activity against human Raji cells assessed as cell growth inhibition at 0.2 uM preincubated with uridine for 24 hrs followed by compound addition and measured after 72 hrs by MTT assay; type: functional; parameters: scale not given: the % may be the effect or the level left
HEL = assay: Antiproliferative activity against human HEL cells assessed as cell growth inhibition incubated for 96 hrs by MTT assay; type: functional, cell-based
[19] = Microsomal stability in human liver microsomes assessed as half life at 1 uM measured upto 120 mins in presence of NADPH by LC-MS analysis; type: ADME, Microsome
Raji [20] = assay: Antitumor activity against human Raji cells xenografted in NOD-SCID mouse assessed as tumor growth inhibition at 40 mg/kg, po administered for 25 days; type: functional; conditions: 600 h, time 25 day, read-out: TGI
[21] = Drug distribution in NOD-SCID mouse lung at 40 mg/kg, po administered for 25 days by LC-MS analysis; type: ADME, organism-based; conditions: in vivo, 600 h, time 25 day
Mus musculus [22] = assay: Toxicity in NOD-SCID mouse xenografted with human Raji cells assessed as change in uric acid level at 40 mg/kg, po administered for 25 days; type: organism-based; conditions: in vivo, 600 h, time 25 day
Mus musculus [23] = assay: Toxicity in NOD-SCID mouse xenografted with human Raji cells assessed as mortality at 40 mg/kg, po administered for 25 days; type: organism-based; conditions: in vivo, 600 h, time 25 day
[24] = Tmax in Sprague-Dawley rat at 15 mg/kg, po measured after 48 hrs by LC-MS analysis; type: ADME, organism-based; conditions: in vivo
Mus musculus [25] = assay: Toxicity in NOD-SCID mouse xenografted with human Raji cells assessed as change in UREAL at 40 mg/kg, po administered for 25 days; type: organism-based; conditions: in vivo, 600 h, time 25 day
[26] = Acute toxicity in BALB/c mouse assessed as effect on kidney at 400 mg/kg, po measured on day 14 by H and E staining based assay; type: organism-based; conditions: in vivo, 336 h, time 14 day
[27] = Oral bioavailability in Sprague-Dawley rat at 15 mg/kg measured after 48 hrs by LC-MS analysis; type: ADME, organism-based; conditions: in vivo
L02 = assay: cells; type: ADME, cell-based; conditions: Homo sapiens, L02, 96 h
Description: Cytotoxicity against human L02 cells assessed as cell growth inhibition incubated for 96 hrs by MTT assay

[28] = Microsomal stability in rat liver microsomes assessed as half life at 1 uM measured upto 120 mins in presence of NADPH by LC-MS analysis; type: ADME, Microsome
[29] = Acute toxicity in BALB/c mouse assessed as effect on spleen at 400 mg/kg, po measured on day 14 by H and E staining based assay; type: organism-based; conditions: in vivo, 336 h, time 14 day
Raji [30] = assay: Antitumor activity against human Raji cells xenografted in NOD-SCID mouse assessed as tumor growth inhibition at 30 mg/kg, po administered for 25 days; type: functional; conditions: 600 h, time 25 day, read-out: TGI
[31] = Plasma protein binding in rat at 10 uM incubated for 5 hrs by LC-MS analysis; type: ADME, cell-free; conditions: read-out: PPB (converted)
[32] = Acute toxicity in BALB/c mouse assessed as effect on lung at 400 mg/kg, po measured on day 14 by H and E staining based assay; type: organism-based; conditions: in vivo, 336 h, time 14 day
[33] = AUC(0 to t) in Sprague-Dawley rat at 5 mg/kg, iv measured after 48 hrs by LC-MS analysis; type: ADME, organism-based; parameters: time 48 hrs, dose 5 mg/kg, route iv; conditions: in vivo, 48 h
[34] = Plasma protein binding in rat at 0.1 uM incubated for 5 hrs by LC-MS analysis; type: ADME, cell-free; conditions: read-out: PPB (converted)
[35] = Plasma protein binding in rat at 1 uM incubated for 5 hrs by LC-MS analysis; type: ADME, cell-free; conditions: read-out: PPB (converted)
[36] = AUC(0 to t) in Sprague-Dawley rat at 15 mg/kg, po measured after 48 hrs by LC-MS analysis; type: ADME, organism-based; parameters: dose 15 mg/kg, time 48 hrs, route po; conditions: in vivo
THP-1 = assay: Antiproliferative activity against human THP-1 cells assessed as cell growth inhibition incubated for 96 hrs by MTT assay; type: functional, cell-based; conditions: THP-1, 96 h
[37] = Drug distribution in NOD-SCID mouse liver at 40 mg/kg, po administered for 25 days by LC-MS analysis; type: ADME, organism-based; conditions: in vivo, 600 h, time 25 day
[38] = Acute toxicity in BALB/c mouse assessed effect on feeding at 400 mg/kg, po; type: organism-based; conditions: in vivo
Raji [39] = assay: Antitumor activity against human Raji cells xenografted in NOD-SCID mouse assessed as tumor growth inhibition at 15 mg/kg, po administered for 25 days; type: functional; conditions: 600 h, time 25 day, read-out: TGI

T1 sequence (Q02127 whole entry): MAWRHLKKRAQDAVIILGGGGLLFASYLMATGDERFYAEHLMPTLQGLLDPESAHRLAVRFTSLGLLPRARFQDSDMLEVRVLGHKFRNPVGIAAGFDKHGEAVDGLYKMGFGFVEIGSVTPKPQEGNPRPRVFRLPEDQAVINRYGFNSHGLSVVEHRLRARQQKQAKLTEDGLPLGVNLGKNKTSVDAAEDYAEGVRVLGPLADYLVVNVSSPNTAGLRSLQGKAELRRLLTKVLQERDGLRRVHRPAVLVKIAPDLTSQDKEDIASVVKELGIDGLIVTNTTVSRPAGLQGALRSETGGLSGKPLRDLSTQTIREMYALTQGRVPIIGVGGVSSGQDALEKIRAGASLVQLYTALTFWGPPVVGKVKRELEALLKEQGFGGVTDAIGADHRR

With `C/C(O)=C(\C#N)C(=O)Nc1cc(O[C@@H](C)C(F)(F)F)c(C(=O)Nc2c(F)cccc2F)cc1F` the inhibition [1] was 88.9%, the pIC50 (MV4-11) was 7.70 and the Activity (Raji [2]) was 58.7%. The pIC50 [3] was 7.80, the pIC50 (HL-60) was 7.70 and the CL/F [4] was 10 mL/min/kg. For the same compound, the half-life [5] was 10.1 h, the Activity (Raji [6]) was 21.3% and the Drug uptake [7] was “Active”. For the same compound, the Activity [8] was “Non-Toxic”, the half-life at 1 µM [9] was 8.25 h and the half-life [10] was 7.1 h. For the same compound, the Activity (Raji [11]) was 43.1%, the Activity (Raji [12]) was 70.3% and the Activity (Mus musculus [13]) was “Non-Toxic”. The CL [14] was 10 mL/min/kg, the Activity [15] was “Non-Toxic” and the Cmax [16] was 1270 ng/mL. It also gave an Activity (Raji [17]) of 6.2%, an Activity (Raji [18]) of 17.1% and a pIC50 (HEL) of 7.70. For the same compound, the half-life at 1 µM [19] was 23.1 h, the inhibition in vivo at 40 mg/kg (Raji [20]) was 83.6% and the Drug uptake [21] was “Active”. The Activity (Mus musculus [22]) was “Non-Toxic”, the Activity (Mus musculus [23]) was “Non-Toxic” and the Tmax [24] was 18 h. For the same compound, the Activity (Mus musculus [25]) was “Non-Toxic”, the Activity [26] was “Non-Toxic” and the bioavailability [27] was 31.1%. The pIC50 (L02) was 6.29, the half-life at 1 µM [28] was 1.43 h and the Activity [29] was “Non-Toxic”. For the same compound, the inhibition in vivo at 30 mg/kg (Raji [30]) was 81.4%, the fraction unbound at 5 h, 10 µM [31] was 0.007 and the Activity [32] was “Non-Toxic”. It also gave an AUCt [33] of 31644 ng·h/mL, a fraction unbound at 5 h, 0.1 µM [34] of 0.099 and a fraction unbound at 5 h, 1 µM [35] of 0.014. The AUC(0-t) at 48 h [36] was 29500 ng·h/mL, the pIC50 (THP-1) was 7.70 and the Drug uptake [37] was “Active”. For the same compound, the Activity [38] was “Non-Toxic” and the inhibition in vivo at 15 mg/kg (Raji [39]) was 72.2%.
